Key:
Type in all cases: physicochemical
[1] = Cyclic voltammogram, negative region, 1 mM solution in 0.1M TBAPF6 in acetonitrile
Procedure: FIG. 2. Voltammogram of the […]/negative region of a 1 mM solution of Fe(TREN-Pic) in 0.1 M tetrabutylammonium hexafluorophosphate (TBAPF6) in acetonitrile (MeCN), obtained using a glassy carbon working electrode, a platinum wire counter electrode, and a 0.010 M AgBF4 reference electrode.
(§1) In the negative portion of a cyclic voltammogram four features at −0.93, −2.10, −2.28, and −2.55V are observed with current ratios (i[cathodic]/i[anodic]) of 1.01, 0.67, 1.17, and 1.01 respectively. These were obtained with a 1 mM solution of Fe(TREN-Pic) in 0.1M tetrabutylammonium hexafluorophosphate in acetonitrile using a glassy carbon working electrode, platinum wire counter, and a 0.01M silver tetrafluoroborate reference electrode. When the −0.93V wave is subjected to bulk electrolytic cycling over 25 repetitions, a high Coulombic efficiency is calculated (˜95%) with an unoptimized slow decay in utilization (electrons stored per redox carrier molecule) of 4% over the first ten cycles. […] This represents only the third known complex to display this behavior (JACS, 2016, 15378 and Journal of Power Sources, 2016, 681).

[2] = Bulk electrolytic cycling (galvanostatic 1 electron charging and discharging) of the −0.93V wave; settings: over the first ten cycles, unoptimized
Procedure: FIG. 3. Galvanostatic 1 electron charging and discharging of a 1 mM solution of Fe(TREN-Pic) in 0.1 M TBAPF6 in MeCN, charging and discharging rates were both 1 mA and potential cutoffs were −1.3 V vs Ag^+ during charging and −0.4 V vs Ag^+ during discharging.
FIG. 5. Metrics obtained from bulk electrolysis displaying high coulombic efficiencies for the charge/discharge cycling.
as §1

[3] = Bulk cycling with broadened voltage window (galvanostatic 2 electron charging and discharging); settings: voltage window broadened to include the next wave; over 25 cycles
Procedure: FIG. 6. Galvanostatic 2 electron charging and discharging of a 1 mM solution of Fe(TREN-Pic) in 0.1 M TBAPF6 in MeCN, charging and discharging rates were both 1 mA and potential cutoffs were −2.14 V vs Ag^+ during charging and −0.4 V vs Ag^+ during discharging.
FIG. 8. Metrics obtained from bulk electrolysis displaying high coulombic efficiencies for the charge/discharge cycling and the complexes capability to reversibly store multiple electron equivalents.
as §1

Fe III tris(2-aminoethyl)amine (TREN) picolinic (PIC) [Fe(TREN-Pic)]
potential of first feature in negative portion of cyclic voltammogram ([1]; 1 mM in 0.1M tetrabutylammonium hexafluorophosphate in acetonitrile, glassy carbon working electrode, platinum wire counter, 0.01M silver tetrafluoroborate reference, first feature): −0.93 V | current ratio (i[cathodic]/i[anodic]) ([1]; feature at −0.93 V): 1.01 | current ratio (i[cathodic]/i[anodic]) ([1]; feature at −2.10 V): 0.67 | current ratio (i[cathodic]/i[anodic]) ([1]; feature at −2.28 V): 1.17 | current ratio (i[cathodic]/i[anodic]) ([1]; feature at −2.55 V): 1.01 | potential of fourth feature in negative portion of cyclic voltammogram ([1]; same conditions, fourth feature): −2.55 V | potential of second feature in negative portion of cyclic voltammogram ([1]; same conditions, second feature): −2.10 V | potential of third feature in negative portion of cyclic voltammogram ([1]; same conditions, third feature): −2.28 V | decay in utilization (electrons stored per redox carrier molecule) [2]: 4% | decay over cycling [3]: significant decay

— US11569513B1, “Redox flow battery carrier molecule” (Triad National Security, LLC, priority 2020, dated 2023)
